Test results from patent US9296787B2, “Antitumor peptide and use thereof” (priority 2011, dated 2016).
Like-named read-outs stand apart in the source and are kept apart here. Positions of bridges follow the written chain, without caps; N, C: chain ends. Residues, ends and D or L forms follow the SMILES beside them. No end group written: not given here.

Legend:
Assay type in all cases: cell-based
[1] = system: mouse neuroblastoma cell line (N1E-115); settings: for A450(-A620) After 6 hers: WST-8 absorbance after 6 hours; for A450(-A620) After 24 hers: WST-8 absorbance after 24 hours
Method: Some of the sample peptides obtained in Example 1 were tested for antitumor activity against target cultured tumor cells. Details of the assay are as described below.
(§1) As the tumor cells tested, a commercial mouse neuroblastoma cell line (N1E-115) was used. The cell line was cultured beforehand in a DMEM medium (i.e. Dulbecco MEM medium (DMEM medium, a Gibco product) containing 10% fetal bovine serum (FBS, a Gibco product), 2 mM of L-glutamine, 50 unit/mL of penicillin, and 50 μg/mL of streptomycin), and the number of cells per well in a 96-well plate was adjusted to approximately 5×10^3. The volume of the medium for this was 100 μL per well.
(§2) Subsequently, the stock solution of each sample peptide shown in Table 3 was added to each well to a peptide concentration in the well of 50 μM or 100 μM.
(§3) After the sample peptides were added as described above, the 96-well plate was placed in a CO2 incubator and cultured without agitation at 37° C. under 5% CO2. At the time of the peptide addition (at the start of treatment) and at 6 hours or 24 hours from the peptide addition and the start of incubation, the viability status of the cultured cells tested was analyzed with a commercial colorimetric assay kit. In particular, to each cell-culturing well, “water-soluble tetrazolium salt (WST-8)” was added as a colorimetric reagent; after two hours of incubation following the addition, the cell culture medium supplied with the colorimetric reagent was collected; and the level of inhibition of cell proliferation was evaluated by colorimetry, measuring the absorbance at a wavelength of 450 nm (values corrected with the absorbance at a wavelength of 620 nm, A450-A620) based on reduction of tetrazolium salt. Based on the absorbance at the time of the sample peptide addition (at the start of treatment), the percent decrease in the absorbance after 6 hours or 24 hours was determined as the cell proliferation inhibition rate (%).

HeLa cells (HeLa S3) = settings: WST-8 absorbance after 24 hours
Method: as §1, §2, §3
HeLa cells (HeLa S3) were substituted for the tumor cells tested and the same test as Example 2 described above was carried out. In the present example, the peptides of Samples 1 to 7, 9, 10, 13, 16, 21 and 35 were used.

HeLa cells = test: Multipolar spindle formation, DAPI and anti-tubulin immunofluorescence microscopy; settings: after 24 hours
Method: In addition, the cultured cells supplemented with the peptides were observed under fluorescence microscope. Herein, as for some examples, the observations on Samples 1, 9, 13, 16, 21 and 35 are outlined. In particular, each peptide was added to a peptide concentration in a well of 50 μM (Samples 1, 9) or 100 μM (Samples 13, 16, 21, 35). After 24 hours, the cultured cells were subjected to nuclear staining with DAPI (4′,6-diamidino-2-phenylindole) and observed under fluorescence microscope. As a marker for spindles, α-tubulin was used; and the cells were tested for the presence of tubulin (i.e. the presence of spindles) by immunofluorescence, using a fluorescence-labeled anti-tubulin antibody to identify the tubulin. FIGS. 1 to 6 show merged images of DAPI-stained images and fluorescence images showing the results of the immunofluorescence assays using the fluorescence-labeled anti-tubulin antibody.

[2] = system: human alveolar basal epithelial adenocarcinoma cells, A549; settings: for antitumor activity (tumor cell proliferation-inhibiting activity), in words: A549, 50 μM, 24 hours, summary of Table 5; for A450(-A620) After 24 hers: A549, peptide 50 μM, WST-8 absorbance after 24 hours
Method: as §1, §2, §3
Cells forming a […] (human alveolar basal epithelial adenocarcinoma cells, A549) were substituted for the tumor cells tested and the same test as Example 2 described above was carried out. In the present example, the peptides of Samples 1 to 13, 15 to 22, 24, 29, 35 and 40 were used.

Compound	antitumor activity (tumor cell proliferation-inhibiting activity), in words ([1]; N1E-115, 50 or 100 μM, summary of Table 3)	A450(-A620) After 6 hers ([1]; N1E-115, peptide 50 μM)	A450(-A620) After 24 hers ([1]; N1E-115, peptide 50 μM)	A450(-A620) After 6 hers ([1]; N1E-115, peptide 100 μM)	A450(-A620) After 24 hers ([1]; N1E-115, peptide 100 μM)	A450(-A620) After 24 hers (HeLa cells (HeLa S3); HeLa S3, peptide 50 μM)	A450(-A620) After 24 hers (HeLa cells (HeLa S3); HeLa S3, peptide 100 μM)	formation of multipolar spindles (presence of many multipolar cells) (HeLa cells; peptide 50 μM)	antitumor activity (tumor cell proliferation-inhibiting activity), in words [2]	A450(-A620) After 24 hers [2]	formation of multipolar spindles (presence of many multipolar cells) (HeLa cells; peptide 100 μM)
C[C@@H]1NC(=O)[C@H](CO)NC(=O)[C@H](CO)NC(=O)[C@@H](N)CSSC[C@@H](C(=O)O)NC(=O)[C@H](CO)NC(=O)[C@H](CCCCN)NC(=O)CNC(=O)[C@H]([C@@H](C)O)NC1=O [Sample 1, CSSATGKSC] (H-CSSATGKSC-OH; disulfide 1-9; N-terminus and C-terminus assumed)	high antitumor activity	0.1361	0.1578	0.1104	0.1119	0.1028	0.0891	formation of multipolar spindles	high antitumor activity	1.5487	–
CC(C)C[C@@H]1NC(=O)[C@H](CO)NC(=O)[C@@H]2CCCN2C(=O)[C@@H]2CCCN2C(=O)[C@H](CCCNC(=N)N)NC(=O)[C@@H]2CCCN2C(=O)[C@@H](N)CSSC[C@@H](C(=O)O)NC(=O)[C@H](CCC(=O)O)NC1=O [Sample 9, CPRPPSLEC] (H-CPRPPSLEC-OH; disulfide 1-9; N-terminus and C-terminus assumed)	–	–	–	–	–	0.1366	0.0892	formation of multipolar spindles	–	1.8645	–
SVSVGMKPSPRPKKRTLRKNDRKKR [Sample 35]	–	–	–	–	–	–	–	–	high antitumor activity	1.7451	formation of multipolar spindles
SVSVGMKPSPRP [Sample 13, SVSVGMKPSPRP]	–	–	0.5681	–	0.6422	–	–	–	–	1.9412	formation of multipolar spindles
GPHLGMNQRRRP [Sample 21, GPHLGMNQRRRP]	–	–	0.5284	–	0.5810	–	–	–	high antitumor activity	1.5672	formation of multipolar spindles
GPHHYWYHLRLP [Sample 16, GPHHYWYHLRLP]	–	–	0.6912	–	0.6048	–	–	–	–	1.7309	formation of multipolar spindles
CC(C)C[C@@H]1NC(=O)[C@@H](N)CSSC[C@@H](C(=O)O)NC(=O)[C@H](CCCCN)NC(=O)[C@H](CO)NC(=O)[C@@H]2CCCN2C(=O)[C@H](CO)NC(=O)[C@@H]2CCCN2C(=O)[C@H](C)NC1=O [Sample 2, CLAPSPSKC] (H-CLAPSPSKC-OH; disulfide 1-9; N-terminus and C-terminus assumed)	–	0.2235	0.3926	0.2094	0.3764	0.0924	0.0739	–	–	1.8971	–
